From US20070172421A1, “Substituted pyrrolidine-2-ones” (priority 2004, published 2007)
Where a name gives a salt, the structure may show the parent alone.

| Compound | melting point |
| --- | --- |
| CC(=O)Nc1ccccc1C#C[C@H]1C[C@@H](CN2CCCCC2)C(=O)N1C.Cl | 135 to 140 °C |
| CN1C(=O)[C@@H](CN2CCCCC2)C[C@H]1c1ccc(Br)cc1 (as salt: HCl) [Example A7, (−)-cis-5-(4-Bromo-phenyl)-1-methyl-3-piperidin-1-ylmethyl-pyrrolidin-2-one] | 55 to 58 °C |
| Cc1ccc([C@@H]2C[C@H](CN3CCCCC3)C(=O)N2C)cc1C.Cl [Example A1] | 143 to 147 °C |
| Cc1ccc([C@@H]2C[C@H](CN3CCCCC3)C(=O)N2C)cc1C.Cl [Example A2] | 138 to 142 °C |
| Cc1cc(C)cc([C@@H]2C[C@H](CN3CCCCC3)C(=O)N2C)c1.Cl [Example A3] | 184 to 190 °C |
| Cc1cc(C)cc([C@@H]2C[C@H](CN3CCCCC3)C(=O)N2C)c1.Cl [Example A4] | 172 to 180 °C |
| CN1C(=O)[C@@H](CN2CCCCC2)C[C@H]1c1ccc2c(c1)CCCC2.Cl [Example A5] | 208 to 210 °C |
| CN1C(=O)[C@@H](CN2CCCCC2)C[C@H]1c1ccc2c(c1)CCCC2.Cl [Example A6] | 234 to 238 °C |

Results, then the compound that gave them:

| melting point | Compound |
| --- | --- |
| 110 to 112 °C | CN1C(=O)[C@@H](CN2CCCCC2)C[C@H]1c1ccc(-c2ccc3c(c2)OCO3)cc1 (relative stereo) [Example H5, cis-5-(4-(Benzo[1,3]dioxol-5-yl)-phenyl)-1-methyl-3-piperidin-1-ylmethyl-pyrrolidin-2-one] |
| 87 to 90 °C | CN1C(=O)C(CN2CCCCC2)CC1C1CC1c1ccccc1Cl (stereo not shown) [Example C2, 5-[2-(2-Chloro-phenyl)-cyclopropyl]-1-methyl-3-piperidin-1-ylmethyl-pyrrolidin-2-one] |
| 163 to 167 °C | Cc1cccc(C#C[C@@H]2C[C@H](CN3CCCCC3)C(=O)N2C)c1.Cl [Example D1] |
| 169 to 172 °C | Cc1cccc(C#C[C@@H]2C[C@H](CN3CCCCC3)C(=O)N2C)c1.Cl [Example D2] |
| 197 to 201 °C | CN1C(=O)[C@@H](CN2CCCCC2)C[C@H]1C#Cc1ccccc1.Cl [Example D3] |
| 199 to 203 °C | CN1C(=O)[C@@H](CN2CCCCC2)C[C@H]1C#Cc1ccccc1.Cl [Example D4] |
| 166 to 169 °C | CN1C(=O)[C@@H](CN2CCCCC2)C[C@H]1C#Cc1ccccc1Cl.Cl [Example D5] |
| 160 to 165 °C | CN1C(=O)[C@@H](CN2CCCCC2)C[C@H]1C#Cc1ccccc1Cl.Cl [Example D6] |
| 69 to 71 °C | CN1C(=O)[C@@H](CN2CCCCC2)C[C@H]1c1ccc(Br)s1 [Example E1, (+)-cis-5-(5-Bromo-thiophen-2-yl)-1-methyl-3-piperidin-1-ylmethyl-pyrrolidin-2-one] |
| 162 to 163 °C | CN1C(=O)[C@@H](CN2CCCCC2)C[C@H]1c1ccc(-c2cccc(Cl)c2)s1.Cl [Example E9] |
| 155 to 158 °C | CN1C(=O)[C@@H](CN2CCCCC2)C[C@H]1c1ccc(-c2cccc(Cl)c2)s1.Cl [Example E10] |
| 178 to 183 °C | CN1C(=O)[C@@H](CN2CCCCC2)C[C@H]1c1cnc(-c2ccccc2Cl)s1.Cl [Example F1] |
| 171 to 176 °C | CN1C(=O)[C@@H](CN2CCCCC2)C[C@H]1c1cnc(-c2ccccc2Cl)s1.Cl [Example F2] |
| 215 to 220 °C | CN1C(=O)[C@@H](CN2CCCCC2)C[C@H]1c1cnc(-c2sccc2Cl)s1.Cl [Example F3] |
| 207 to 210 °C | CN1C(=O)[C@@H](CN2CCCCC2)C[C@H]1c1cnc(-c2sccc2Cl)s1.Cl [Example F4] |
| 134 to 139 °C | CN1C(=O)[C@@H](CN2CCCCC2)C[C@H]1c1ccc(-c2ccccc2Cl)cc1.Cl [Example H2] |
| 130 to 135 °C | CN1C(=O)[C@@H](CN2CCCCC2)C[C@H]1c1ccc(-c2ccccc2Cl)cc1.Cl [Example H3] |
